{"source": "patent US9642821B2", "about": "“MiR-182 in the diagnosis and treatment of cancer” (Dana-Farber Cancer Institute, Inc., priority 2010, dated 2017)", "type_in_all_cases": "cell-based", "key": {"[1]": {"test_system": "MDA-MB231 cells", "assay": "Single-cell gel electrophoresis (comet) assay after irradiation, MDA-MB231", "details": "MDA-MB231, 18 h repair, vs control mimic", "experimental": "21NT cells (0.35×10^6 cells/well in 6 well tissue culture plate) were transfected with 100 nM control or miR-182 antagomir expression vector (Ambion, Austin, Tex.) whereas MDA-MB231 (0.35×10^6 cells/well on 6 well plate) were transfected with 10 nM control or miR-182 mimic expression vector (Ambion, Austin, Tex.) using Lipofectamine 2000. At day 3 after transfection, cells were irradiated (0, 2, 4 and 6 Gy) and allowed to recover for 18 hours prior to analysis. The single cell comet assays was carried out according manufacturer's instructions (Trevigen, Gaithersburg, Md.). Briefly, treated or untreated cells were collected, resuspended in ice cold PBS at 10^5 cells/ml, mixed with low-melting point agarose (1:10 ratio) and spread on frosted glass slides. After the agarose solidified, the slides were placed in lysis buffer and then in alkaline solutions. […] Nuclei were visualized using epifluorescent illumination on a Zeiss microscope and images analyzed with National Institutes of Health ImageJ software (rsbweb.nih.gov/ij/). DNA damage was quantified for 70-100 cells for each experimental condition by determining the DNA in the comet tail using the software Comet Score (TriTek, Sumerduck, Va.)."}, "[2]": {"test_system": "BRCA1", "assay": "BRCA1 expression after ectopic miRNA overexpression in HL60 cells (immunoblot, qPCR)", "experimental": "Analysis of the miRNAs of the miR-183 cluster was conducted using qPCR using the TaqMan MicroRNA Assay from Applied Biosystems as per the manufacturer's instructions and normalized to RNU6B snRNA. Analysis of mRNA expression was carried out with qPCR using the SYBR Green master mix (Applied Biosystems, Foster City, Calif.) according to the manufacture's manual and the BioRad iCycler. The mRNA (1 μg) was reverse transcribed with 50 ng random primers using 100 U moloney murine leukemia virus (MMLV) reverse transcriptase (Epicentre, Madison, Wis.) according to the manufacturer's manual. Results were normalized to 5SrRNA or GAPDH.\nIn each experiment, where Western blot analysis was done, a fraction of 0.2−0.5×10^6 cells was taken out at day, 3 or 4, post-transfection. Breast cancer cell lines were collected from 6 well tissue culture plates (0.5-1×10^6 cells). Cells lysates were prepared in RIPA buffer (150 mM NaCl, 1% NP-40, 0.5% sodium deoxycholate, 0.1% SDS, 50 mM Tris, pH 8.0). Lysates of 0.1×10^6 cells of each sample plus loading buffer were loaded on 8% SDS-PAGE gels, semi-dry transferred on nitrocellulose membrane, and probed with anti-BRCA1 antibody at a 1:500 dilution (CALBIOCHEM, MS110) and anti-tubulin antibody at a 1:10,000 dilution (Sigma, Clone B-5-1-2)."}, "[3]": {"test_system": "BRCA1 3′UTR-luciferase reporter", "assay": "Luciferase reporter assay with BRCA1 3′UTR in HeLa cells", "experimental": "The wild type (WT) and mutated (M) miR-182 recognition elements of 3′UTR-BRCA1 were annealed (see below) and cloned in expression vector, pMIR-REPORT (Ambion, Austin, Tex.) downstream to Firefly Luciferase.\nHela cells were co-transfected in a 24 well tissue culture plate with 10 nM control mimic (Ambion, Austin, Tex.) or miR-182 mimic (Ambion, Austin, Tex.), 0.2 μg 3′UTR-BRCA1-WT or 3′UTR-BRCA1-M, and 0.2 μg Renilla luciferase in pRL-TK (Promega, Madison, Wis.) vector using lipofectamine 2000 as described in manufacture's manual. Cells were harvested on day 2 and the luciferase activity was assayed with the Dual-Luciferase Assay System (Promega, Madison, Wis.) and a Synergy HT microplate reader (BioTek, Winooski, Vt.) as described in manufacture's manual."}, "[4]": {"test_system": "U2OS cells", "assay": "G2/M checkpoint, phospho-H3 flow cytometry after IR", "details": "5 Gy IR, nocodazole, P-H3 staining", "experimental": "U2OS cells (0.35×10^6 cells/well) were transfected with 10 nM control mimic or miR-182 mimic and, in rescue experiments, co-transfected with 1 μg of BRCA1 (lacking 3′UTR) expression construct using Lipofectamine 2000. After 2 days, cells were seeded into the wells of 12-well tissue culture plates, incubated overnight, irradiated (5 Gy) and released in nocadozole (200 ng/ml) containing media after 2 hours. The next day the cells were stained with primary Phospho-H3 (Ser10) antibodies 1:100 dilution (Upstate Biotechnology, Lake Placid, N.Y.) and FITC-labeled secondary antibodies 1:50 dilution (Santa Cruz Biotechnology, Santa Cruz, Calif.) and analyzed by flow cytometry."}, "[5]": {"test_system": "MDA-MB231 cells", "assay": "Clonogenic cell survival assay after γ-radiation, MDA-MB231", "details": "MDA-MB231, vs control mimic", "experimental": "Hela cells (0.35×10^6 cells/well), MDA-MB231 cells (0.4×10^6 cells/well), 21NT cells (0.5×10^6) were seeded overnight and transfected with 10 nM of miRNA mimics or antagomirs (Ambion, Austin, Tex.) using Lipofectamine 2000. In rescue experiments, miR-182 or control mimics were co-transfected with 1 μg/ml BRCA1 (pcDNA3.1 vector). After 2 days, 1000 cells in 4 ml DMEM media (10% FBS v/v) were seeded on 6 cm tissue culture dishes in four replicates and allowed to attach overnight before treatment. PARP inhibitors (4-amino-1,8-naphthalimide (Sigma, St. Louis, Mo.) or ABT-888 (ChemieTek, Indianapolis, Ind.) in DMSO) were added to the growth media at indicated concentrations. Irradiated cells as well as cells in the presence of PARP inhibitor were allowed to form colonies for 14 days. For evaluation, formed colonies were stained with crystal violet and surviving colonies containing >50 cells were counted. Plating efficiency was 30-50%."}, "[6]": {"test_system": "U2OS-DR-GFP cells", "assay": "Homologous recombination (HR) DR-GFP reporter assay", "details": "U2OS DR-GFP stably expressing miR-182, I-SceI", "experimental": "U2OS-DR-GFP cells, with a single, stably integrated copy of the transgenic reporter DR-GFP were seeded (0.35×10^6 cells/well) into the wells of a 6-well tissue culture plate, transfected with a control and an miR-182 expression construct. Cells were selected for 4 weeks with 100 μg/ml of puromycin. mir-182 overexpression was confirmed with qPCR (FIG. 3C). HR assay was done as described (Chowdhury et al., Mol. Cell, 31:33-46 (2008)). Briefly, 2×10^5 cells plated overnight in 24-well plates were transfected with 0.8 μg of I-SceI expression plasmid (pCBA Sce) using Lipofectamine 2000. 2 days later, GFP positive cells were assayed by FACScan flow cytometer."}}, "note": "“Also recorded” adds a separate entry of the source.", "data": [{"substance": "miR-182: microRNA with sequence 5′ UUUGGCAAUGGUAGAACUCACACU 3′ (SEQ ID NO:1); given as mimic (Ambion) or expression vector (UUUGGCAAUGGUAGAACUCACACU; listed as RNA, chemistry not given here; listed as Homo sapiens)", "values": [{"measurement": "residual DNA damage (unrepaired DSBs) after irradiation", "setting": "[1]", "value": "significantly higher residual DNA damage"}, {"measurement": "residual DNA damage (unrepaired DSBs) after irradiation", "setting": "[1]; listed as 182 mimic", "value": "significantly altered"}, {"measurement": "BRCA1 protein level", "setting": "[2]; HL60 cells transiently transfected with expression vectors, Western blot", "value": "significant decrease"}, {"measurement": "BRCA1 mRNA level", "setting": "[2]; ectopic overexpression, data not shown", "value": "moderate decrease"}, {"measurement": "effect of miR-182 on luciferase with mutated miR-182 recognition sites (BRCA1-M reporter)", "setting": "[3]", "value": "significantly reduced the effect; also recorded: rescued this suppression"}, {"measurement": "reduction of luciferase activity, wildtype BRCA1-reporter", "setting": "[3]; 10 nM mimic, vs control mimic", "value": "more than 2 fold"}, {"measurement": "luciferase activity of BRCA1-WT reporter", "setting": "[3]; normalized to Renilla, p<0.001", "value": "suppressed luciferase activity"}, {"measurement": "mitotic cells post-DNA damage (G2/M checkpoint)", "setting": "[4]", "value": "significant increase in mitotic cells; also recorded: impacts the G2/M checkpoint"}, {"measurement": "sensitivity to IR (clonogenic survival)", "setting": "[5]", "value": "significantly more sensitive"}, {"measurement": "sensitivity to IR (clonogenic survival)", "setting": "[5]; listed as miR-182 mimic", "value": "significantly enhanced sensitivity to IR"}, {"measurement": "HR-mediated DSB repair efficiency (GFP positive cells)", "setting": "[6]", "value": "significantly reduced HR-efficiency; also recorded: impedes homologous recombination-mediated repair"}]}]}
